Reference: ChEMBL document CHEMBL4627246, “Pyroglutamide-Based P2X7 Receptor Antagonists Targeting Inflammatory Bowel Disease” (J Med Chem, 2020)

How the values were obtained:
Format in all cases: cell-based
[1] = test system: HOP-62; experiment: Cytotoxicity against human HOP62 cells assessed as effect on cell growth at 10 uM incubated for 48 hrs by sulforhodamine B assay; details: hop-62, 48 h
[2] = test system: SK-MEL-2; experiment: Cytotoxicity against human SK-MEL-2 cells assessed as effect on cell growth at 10 uM incubated for 48 hrs by sulforhodamine B assay; details: sk-mel-2, 48 h
[3] = test system: OVCAR-3; experiment: Cytotoxicity against human OVCAR3 cells assessed as effect on cell growth at 10 uM incubated for 48 hrs by sulforhodamine B assay; details: ovcar-3, 48 h
[4] = test system: SK-MEL-28; experiment: Cytotoxicity against human SK-MEL-28 cells assessed as effect on cell growth at 10 uM incubated for 48 hrs by sulforhodamine B assay; details: sk-mel-28, 48 h
[5] = test system: OVCAR-4; experiment: Cytotoxicity against human OVCAR4 cells assessed as effect on cell growth at 10 uM incubated for 48 hrs by sulforhodamine B assay; details: ovcar-4, 48 h
[6] = test system: SF-539; experiment: Cytotoxicity against human SF539 cells assessed as effect on cell growth at 10 uM incubated for 48 hrs by sulforhodamine B assay; details: sf-539, 48 h
[7] = test system: Malme-3M; experiment: Cytotoxicity against human MALME-3M cells assessed as effect on cell growth at 10 uM incubated for 48 hrs by sulforhodamine B assay
[8] = test system: OVCAR-8; experiment: Cytotoxicity against human OVCAR8 cells assessed as effect on cell growth at 10 uM incubated for 48 hrs by sulforhodamine B assay; details: ovcar-8, 48 h
[9] = test system: K562; experiment: Cytotoxicity against human K562 cells assessed as effect on cell growth at 10 uM incubated for 48 hrs by sulforhodamine B assay; details: k562, 48 h
[10] = test system: T47D; experiment: Cytotoxicity against human T47D cells assessed as effect on cell growth at 10 uM incubated for 48 hrs by sulforhodamine B assay
[11] = test system: MDA-MB-231; experiment: Cytotoxicity against human MDA-MB-231 cells assessed as effect on cell growth at 10 uM incubated for 48 hrs by sulforhodamine B assay; details: mda-mb-231, 48 h
[12] = test system: HCC 2998; experiment: Cytotoxicity against human HCC2998 cells assessed as effect on cell growth at 10 uM incubated for 48 hrs by sulforhodamine B assay; details: hcc 2998, 48 h
[13] = test system: M14; experiment: Cytotoxicity against human M14 cells assessed as effect on cell growth at 10 uM incubated for 48 hrs by sulforhodamine B assay; details: m14, 48 h
[14] = test system: NCI/ADR-RES; experiment: Cytotoxicity against human NCI/ADR-RES cells assessed as effect on cell growth at 10 uM incubated for 48 hrs by sulforhodamine B assay
[15] = test system: A549; experiment: Cytotoxicity against human A549/ATCC cells assessed as effect on cell growth at 10 uM incubated for 48 hrs by sulforhodamine B assay; details: a549, 48 h
[16] = test system: RXF 393; experiment: Cytotoxicity against human RXF393 cells assessed as effect on cell growth at 10 uM incubated for 48 hrs by sulforhodamine B assay; details: rxf 393, 48 h
[17] = test system: A498; experiment: Cytotoxicity against human A498 cells assessed as effect on cell growth at 10 uM incubated for 48 hrs by sulforhodamine B assay; details: a498, 48 h
[18] = test system: SF-295; experiment: Cytotoxicity against human SF295 cells assessed as effect on cell growth at 10 uM incubated for 48 hrs by sulforhodamine B assay; details: sf-295, 48 h
[19] = test system: CCRF-CEM; experiment: Cytotoxicity against human CCRF-CEM cells assessed as effect on cell growth at 10 uM incubated for 48 hrs by sulforhodamine B assay
[20] = test system: COLO 205; experiment: Cytotoxicity against human COLO205 cells assessed as effect on cell growth at 10 uM incubated for 48 hrs by sulforhodamine B assay; details: colo 205, 48 h

Measured: Activity

COc1ccc(CN2C(=O)[C@@H]3C/C(=C\N(C)C)C(=O)N3C2N(C)C)c(OC)c1 (stereo not given in full)
Non-Toxic: all assays above

O=C(NCc1ccc(Cl)cc1Cl)[C@@H]1CCC(=O)N1C(c1ccc(Cl)cc1)c1ccc(Cl)cc1
Non-Toxic: all assays above

O=C(NCc1ccc(Cl)cc1Cl)[C@@H]1CCC(=O)N1c1ccc(Cl)cc1
Non-Toxic: all assays above

O=C(NCc1ccc(Cl)cc1Cl)[C@@H]1CCC(=O)N1c1cncs1
Non-Toxic: all assays above

O=C(NCc1ccc(Cl)cc1Cl)[C@@H]1CCC(=O)N1c1ccc(Cl)cc1Cl
Non-Toxic: all assays above

O=C(NCc1ccc(Cl)cc1Cl)[C@@H]1CCC(=O)N1c1cscn1
Non-Toxic: all assays above

C[n+]1ccccc1C(=O)NCc1ccc(Cl)cc1Cl.[I-]
Non-Toxic: all assays above

CN(C)/C=C1\C[C@H]2C(=O)N(Cc3ccccc3Cl)C(N(C)C)N2C1=O (stereo not given in full)
Non-Toxic: all assays above

O=C1N[C@H](C(=O)NCc2ccc(Cl)cc2Cl)C/C1=C/NCc1ccc(Cl)cc1Cl
Non-Toxic: all assays above

COc1cc(CNC(=O)[C@@H]2CCC(=O)N2)cc(OC)c1OC
Non-Toxic: all assays above

O=C(NCCc1ccccc1)[C@@H]1CCC(=O)N1Cc1ccc(Cl)cc1Cl
Non-Toxic: all assays above

COC(=O)[C@@H]1C/C(=C\NCc2ccc(Cl)cc2Cl)C(=O)N1C(=O)OC
Non-Toxic: all assays above
